The structures appear in SMILES notation.

Format in all cases: in vivo, Lewis rats
Data set [1] concerns adjuvant-induced arthritis (AIA) model. The experiment in a line: Clinical score analysis in adjuvant-induced arthritis (AIA) model. Also noted: Clinical score 9th day / Clinical score 13th day / Clinical score 16th day / Clinical score 11th day / Clinical score 15th day / Clinical score 18th day: scale not given here. The settings on record: for Clinical score 9th day / Clinical score 13th day / Clinical score 16th day: Mean ± SD; for Clinical score 11th day / Clinical score 15th day / Clinical score 18th day: Mean ± SEM. How it is done: (§1) Lewis rats (female, five-weeks old) were purchased from Central Lab Animal, Inc. and kept in a controlled environment with a temperature at 22±2° C., a humidity at 44-56% and a light/dark cycle of 12 hours, while being allowed to have a free access to standard diet and water for one week before an examination. Complete Freund's Adjuvant (Chondrex) containing 10 mg/mL of heat killed mycobacteria toxin was fully mixed together, after which […] thereof was taken and subcutaneously injected into each upper tail of the rats to induce arthritis therefrom.
(§2) To administer a drug of compound 374 (SM374) and evaluate an effect thereof, the rats were divided into 11 groups (9, 10 or 11 animals per group) one day before or nine days after inducing arthritis, after which each group was classified according to administered substances (vehicle, compound 374 (SM374) or methotrexate (MTX)) and administration routes (oral administration (P.O.) or intraperitoneal administration (I.P.)) as shown in a following table 13.
(§3) Also, in order to administer a drug of compounds 374, 413, 484, 530 and 652 (SM374, SM413, SM484, SM530 and SM652) and evaluate an effect thereof, the rats were divided into 13 groups (9 or 10 animals per group) eight days after inducing arthritis, and each group was classified according to administered substances (vehicle, SM374, SM413, SM484, SM530, SM652 and MTX) and administration routes (oral or intraperitoneal administration) as shown in a following table 14.
To identify the efficacy of the inventive composition on preventing or treating arthritis in an AIA model, an analysis was made on the clinical scores of rats dosed with a compound 374 (SM 374, once per day) or MTX (once per week or twice per week) from 9th day to 16th day after inducing arthritis.
Particularly, a degree of swelling, erythema, etc., in each joint of the rats were observed, after which clinical scores were calculated according to a scoring system described in a following table 15, such that the clinical scores on four joints were added up to obtain total scores for each rat (Vishwakarma et al., 2013).
To identify the efficacy of the inventive composition on preventing or treating arthritis in an AIA model, an analysis was made on the clinical scores of rats dosed with compounds 374, 413, 484, 530 and 652 (SM374, SM413, SM484, SM530 and SM652, once per day) or MIX (once per week) from 8th day to 18th day after inducing arthritis.

Data set [2] can be described thus: Analysis of body weights in AIA model. The settings on record: for Body weight (g) 9th day / Body weight (g) 13th day / Body weight (g) 16th day: Mean ± SD; for Body weight (g) 8th day / Body weight (g) 11th day / Body weight (g) 15th day / Body weight (g) 18th day: Table 19 study, compound 10 mg/kg once per day P.O. How it is done:
as §1, §2, §3
An analysis was made on the body weight of rats dosed with compound 374 (SM 374, once per day) or MIX (once per week or twice per week) from 9th day to 16th day after inducing AIA. […]

A further data set relates to anti-CCP IgG. Briefly: Analysis of anti-CCP IgG in plasma in AIA model (QUANTA Lite CCP3 IgG ELISA). The settings on record: Mean ± SD. The method, then:
as §1, §2
An effect of compound 374 (SM374) and MTX on preventing or treating arthritis according to administration thereof in combination was evaluated based on analysis of anti-CCP IgG, known as a diagnosis marker for rheumatoid arthritis.
Particularly, blood was collected from each jugular vein of rats dosed with compound 374 (SM374, once per day) and MTX (once or twice per week) from 9th day to 16th day after inducing AIA, after which plasma was isolated therefrom, such that anti-CCP IgG was measured with QUANTA Lite®CCP3 (cyclic citrullinated peptide 3) IgG ELISA kit (INOVA Diagnostics Inc., U.S., catalog no. 704535) according to a protocol offered by a manufacturer thereof, wherein the results thereof are shown in FIG. 5 and Table 20.

[3] abbreviates: SM374 0.1 mg/kg once per day P.O.
[4] abbreviates: SM374 0.5 mg/kg once per day P.O.
The mark [5] stands for this setting: SM374 1 mg/kg once per day P.O.
Setting [6] is: SM374 10 mg/kg once per day P.O.
The mark [7] stands for this setting: Table 17 study, compound 10 mg/kg once per day P.O., 18th day vs vehicle.
Where [8] appears, read: Table 17 study, compound 10 mg/kg once per day P.O.

As for `O=C(NO)c1ccc(CN(C(=O)N2CCOCC2)c2cccc(C(F)(F)F)c2)cc1` [SM374, N-(4-(hydroxycarbamoyl)benzyl)-N-(3-(trifluoromethyl)phenyl)morpholine-4-carboxamide], the “Rate of reduction in clinical scores (%)” value in data set [1] (SM374 0.1 mg/kg once per day P.O., 16th day vs vehicle) is 0%; in data set [1] (SM374 0.5 mg/kg once per day P.O., 16th day vs vehicle), 2.9%; in data set [1] (SM374 1 mg/kg once per day P.O., 16th day vs vehicle), 14.5%; in data set [1] (SM374 10 mg/kg once per day P.O., 16th day vs vehicle), −2.9%; in data set [1] (setting [7]), 21.3%. Moreover, the “Clinical score 9th day” value in data set [1] (setting [3]), in data set [1] (setting [4]), in data set [1] (setting [5]) and in data set [1] (setting [6]) was 0.0 ± 0.0 in each case. In addition, the “Clinical score 13th day” value is listed as 4.3 ± 2.9 in data set [1] (setting [3]), 2.6 ± 2.3 in data set [1] (setting [4]), 2.7 ± 3.0 in data set [1] (setting [5]) and 2.9 ± 2.9 in data set [1] (setting [6]). Moreover, the “Clinical score 16th day” value in data set [1] (setting [3]) came out at 6.9 ± 3.0; in data set [1] (setting [4]) it was 6.7 ± 4.2; in data set [1] (setting [5]) it was 5.9 ± 4.4; in data set [1] (setting [6]), 7.1 ± 3.1. Besides, in data set [1] (setting [8]), the “Clinical score 11th day” value was determined as 0.0 ± 0.0. Also, the “Clinical score 15th day” value in data set [1] (setting [8]) turned out to be 1.6 ± 0.7. In data set [1] (setting [8]), the “Clinical score 18th day” value came out at 4.8 ± 1.4. Further, the “Body weight (g) 9th day” value in data set [2] (setting [3]) is on record as 157.3 ± 10.1 g; in data set [2] (setting [4]) it was 157.3 ± 10.0 g; in data set [2] (setting [5]), 157.3 ± 10.7 g; in data set [2] (setting [6]), 157.3 ± 9.9 g. Moreover, the “Body weight (g) 13th day” value in data set [2] (setting [3]) was 151.3 ± 13.3 g; in data set [2] (setting [4]) it was 153.1 ± 10.8 g; in data set [2] (setting [5]) it was 156.9 ± 8.9 g; in data set [2] (setting [6]), 151.6 ± 12.2 g. Also, the “Body weight (g) 16th day” value in data set [2] (setting [3]) was determined as 144.2 ± 10.5 g; in data set [2] (setting [4]) it was 148.6 ± 9.5 g; in data set [2] (setting [5]), 151.6 ± 11.5 g; in data set [2] (setting [6]) it was 147.6 ± 9.3 g. In addition, the “Body weight (g) 8th day” value in data set [2] was 151.3 ± 2.1 g. Moreover, the “Body weight (g) 11th day” value in data set [2] is given as 153.9 ± 1.5 g. Also, the “Body weight (g) 15th day” value in data set [2] was 159.2 ± 1.5 g. Moreover, in data set [2], the “Body weight (g) 18th day” value turned out to be 157.6 ± 3.1 g. The results for the “Anti-CCP IgG (RU)” value in the data set on anti-CCP IgG (SM374 0.5 mg/kg once per day), in the data set with anti-CCP IgG (SM374 1 mg/kg once per day) and in the data set with anti-CCP IgG (SM374 10 mg/kg once per day) were 216.2 ± 30.0 RU, 221.8 ± 28.0 RU and 206.6 ± 32.9 RU, respectively.
As to `O=C(NO)c1ccc(CN(C(=O)N2CCOCC2)c2ccc(F)cc2F)cc1` [SM413, N-(2,4-difluorophenyl)-N-(4-(hydroxycarbamoyl)benzyl)morpholine-4-carboxamide], in data set [1] (setting [7]), the “Rate of reduction in clinical scores (%)” value is −3.3%. For the same molecule, in data set [1] (setting [8]), the “Clinical score 11th day” value is listed as 0.0 ± 0.0, the “Clinical score 15th day” value was determined as 3.0 ± 1.4 and the “Clinical score 18th day” value stood at 6.3 ± 1.4. In data set [2], the “Body weight (g) 8th day” value came to 151.3 ± 2.9 g, the “Body weight (g) 11th day” value amounted to 151.4 ± 3.9 g, the “Body weight (g) 15th day” value amounted to 157.4 ± 4.2 g and the “Body weight (g) 18th day” value turned out to be 155.2 ± 4.5 g.
As to `COc1cccc(N(Cc2ccc(C(=O)NO)cc2)C(=O)N2CCOCC2)c1` [SM484, N-(4-(hydroxycarbamoyl)benzyl)-N-(3-methoxyphenyl)morpholine-4-carboxamide], the “Rate of reduction in clinical scores (%)” value in data set [1] (setting [7]) came out at 19.7%. Further, in data set [1] (setting [8]), the “Clinical score 11th day” value came to 0.0 ± 0.0, the “Clinical score 15th day” value was determined as 2.9 ± 1.3 and the “Clinical score 18th day” value is listed as 4.9 ± 1.7. Besides, in data set [2], the “Body weight (g) 8th day” value was found to be 151.4 ± 2.5 g, the “Body weight (g) 11th day” value stood at 154.7 ± 2.1 g, the “Body weight (g) 15th day” value is reported as 160.7 ± 3.3 g and the “Body weight (g) 18th day” value amounted to 158.3 ± 4.6 g.
Regarding `O=C(NO)c1ccc(CN(C(=O)N2CCOCC2)c2cccc(F)c2)cc1` [SM530], the “Rate of reduction in clinical scores (%)” value in data set [1] (setting [7]) is on record as 31.1%. For the same molecule, in data set [1] (setting [8]), the “Clinical score 11th day” value was 0.0 ± 0.0, the “Clinical score 15th day” value is listed as 1.2 ± 0.5 and the “Clinical score 18th day” value was 4.2 ± 1.6. For the same molecule, in data set [2], the “Body weight (g) 8th day” value came to 151.2 ± 2.6 g, the “Body weight (g) 11th day” value came to 153.0 ± 2.1 g, the “Body weight (g) 15th day” value is 161.1 ± 2.1 g and the “Body weight (g) 18th day” value was determined as 159.2 ± 4.5 g.
Take `O=C(NO)c1ccc(CN(C(=O)N2CCCOCC2)c2cccc(F)c2)cc1` [SM652, N-(3-fluorophenyl)-N-(4-(hydroxycarbamoyl)benzyl)-1,4-oxazepane-4-carboxamide]: the “Rate of reduction in clinical scores (%)” value in data set [1] (setting [7]) is reported as 19.7%. Besides, in data set [1] (setting [8]), the “Clinical score 11th day” value is 0.0 ± 0.0, the “Clinical score 15th day” value is 1.4 ± 0.9 and the “Clinical score 18th day” value was determined as 4.9 ± 1.6. Besides, in data set [2], the “Body weight (g) 8th day” value is on record as 152.8 ± 2.4 g, the “Body weight (g) 11th day” value turned out to be 157.6 ± 1.9 g, the “Body weight (g) 15th day” value was determined as 158.8 ± 1.6 g and the “Body weight (g) 18th day” value was found to be 156.8 ± 3.9 g.

(Values after patent publication US20220296599A1, “Pharmaceutical composition comprising histone deacetylase inhibitor and methotrexate” (Chong Kun Dang Pharmaceutical Corp., priority 2018, published 2022).)
